Results published in PMC7643960 (PLoS ONE, 2020).
“Also recorded” adds a separate entry of the source.

Key:
[1] = test system: human carbonic anhydrase isoenzyme I; set-up: method as in PMID 15664816; details: cited from earlier work
[2] = test system: equine dermal fibroblasts PriFri2; test: cell cycle investigation by flow cytometry (propidium iodide); type: cell-based, horse; details: double IC50 concentration
Protocol: (§1) Approximately 7.5 × 10^5 cells (MelDuWi) and 1.0 × 10^6 cells (PriFri2 and sRGO2) were seeded in 25 cm^2 cell culture flasks. […] Following 24 and 48 h of incubation, the cells were harvested by mild trypsinization and washed twice with phosphate-buffered saline (PBS) buffer (containing Mg^2+ and Ca^2+). Cells (1.0 × 10^6) were fixed with ethanol (70%, -20°C, for 24 h). After discarding the ethanol, the cells were washed in 1 mL PBS buffer (containing Mg^2+ and Ca^2+) and were centrifuged. The cell pellet was resuspended in 1 mL of staining PBS buffer (containing Mg^2+ and Ca^2+, 10 μg/mL RNASe [Thermofisher] and 15 μg/mL propidium iodide [Sigma-Aldrich, Munich, Germany]) and was incubated for 30 min at room temperature. Analyses were performed using the Attune® FACS machine (Life Technologies, Darmstadt, Germany) collecting data from the BL-2A channel. Doublet cells were excluded from the measurements by plotting BL-2A against BL-2H. A total of 20,000 events were collected for each cell cycle distribution. Each sample was measured in duplicate.

ES cells sRGO2 = test: as above; type: cell-based, horse; details: double IC50 concentration
Protocol: as §1

EMM cells MelDuWi = test: as above; type: cell-based, horse; details: double IC50 concentration
Protocol: as §1

[3] = test system: primary equine dermal fibroblasts PriFi1; test: crystal violet staining assay (CVS), proliferation; type: cell-based, horse; details: for IC50: mean (95% CI)
Protocol: (§2) All cells used for the experiments originate from different horses. Primary EMM cells (MelDuWi) and primary equine dermal fibroblasts (PriFi1, PriFi2) belong to the cell culture stock of the Clinic for Horses, University of Veterinary Medicine Hannover, Foundation, Hannover, Germany.
(§3) The proliferation assay was performed as published. […] Control cells were treated with medium only. The proportion of cells treated relative to untreated controls was determined by crystal violet staining and photometric absorbance measurement at the incubation time points mentioned above. Proliferation assays were performed in six to eight biological replicates with two technical replicates for each combination of cell type, incubation time and compound concentration.
(§4) Technical duplicates with a coefficient of variation of more than 20% were excluded from the cell assay analysis. […] Additional statistical data analysis was conducted with R 3.5.1.. A generalized additive model was fitted for each test (MTS and CVS) and cell type comparison (primary EMM cells and fibroblasts, and primary ES cells and fibroblasts) using the ‘mgcv’ package. Compound concentrations and the duration of incubation were modeled as tensor product smooth interacting with compound and cell line. Cell passage was added as a random effect. An appropriate distribution was selected by the visual inspection of residuals. The p-values were obtained by performing a Wald test for each parameter. Statistical significance was set at 0.05.

primary ES cells sRGO1 = test: crystal violet staining assay (CVS), proliferation; type: cell-based, horse; details: for IC50: mean (95% CI)
Protocol: as §2, §3, §4

primary EMM cells eRGO1 = test: crystal violet staining assay (CVS), proliferation; type: cell-based, horse; details: for IC50: mean (95% CI)
Protocol: as §2, §3, §4

primary ES cells sRGO2 = test: crystal violet staining assay (CVS), proliferation; type: cell-based, horse; details: for IC50: mean (95% CI)
Protocol: as §2, §3, §4

[4] = test system: primary equine dermal fibroblasts PriFi2; test: crystal violet staining assay (CVS), proliferation; type: cell-based, horse; details: for IC50: mean (95% CI)
Protocol: as §2, §3, §4

[5] = test system: primary EMM cells MelDuWi; test: crystal violet staining assay (CVS), proliferation; type: cell-based, horse; details: for IC50: mean (95% CI)
Protocol: as §2, §3, §4

[6] = test system: different malignancies in five dogs; details: cited from earlier work
horses affected by EMM = test system: horses affected by EMM; set-up: method as in PMID 26772157; details: two EMM patients, once a week for 19 consecutive weeks; cited from earlier work

## C=C(C)[C@@H]1CC[C@]2(COS(N)(=O)=O)CC[C@]3(C)[C@H](CC[C@@H]4[C@@]5(C)CC[C@H](OS(N)(=O)=O)C(C)(C)[C@@H]5CC[C@]43C)[C@@H]12 [BBS, (3β)-Lup-20(29)-ene-3,28-diol, 3,28-disulfamate]
[1]
  inhibition of carbonic anhydrase I: efficient inhibitor
[2]; PriFri2, 24 h
  Cell cycle percentage G1/G0: 79,1%
  Cell cycle percentage M: 1,0%
  Cell cycle percentage S: 12,1%
  Cell cycle percentage SubG1: 7,1%
[2]; PriFri2, 48 h
  Cell cycle percentage G1/G0: 73,7%
  Cell cycle percentage M: 0,9%
  Cell cycle percentage S: 10,8%
  Cell cycle percentage SubG1: 13,7%
ES cells sRGO2; sRGO2, 24 h
  Cell cycle percentage G1/G0: 71,9%
  Cell cycle percentage M: 1,6%
  Cell cycle percentage S: 21,8%
  Cell cycle percentage SubG1: 5,3%
ES cells sRGO2; sRGO2, 48 h
  Cell cycle percentage G1/G0: 63,2%
  Cell cycle percentage M: 1,8%
  Cell cycle percentage S: 16,7%
  Cell cycle percentage SubG1: 17,5%
EMM cells MelDuWi; 24 h
  Cell cycle percentage G1/G0: 68,2%
  Cell cycle percentage M: 0,5%
  Cell cycle percentage S: 23,9%
  Cell cycle percentage SubG1: 6,7%
EMM cells MelDuWi; 48 h
  Cell cycle percentage G1/G0: 48,2%
  Cell cycle percentage M: 0,3%
  Cell cycle percentage S: 7,6%
[3]; PriFi1, 5 h
  IC50: > 100 µM
[3]; PriFi1, 24 h
  IC50: 52 µM
[3]; PriFi1, 48 h
  IC50: 42 µM
[3]; PriFi1, 96 h
  IC50: 17 µM
Primary ES cells sRGO1; sRGO1, 5 h
  IC50: > 100 µM
Primary ES cells sRGO1; sRGO1, 24 h
  IC50: 40 µM
Primary ES cells sRGO1; sRGO1, 48 h
  IC50: 23 µM
Primary EMM cells eRGO1; eRGO1, 5 h
  IC50: > 100 µM
Primary EMM cells eRGO1; eRGO1, 24 h
  IC50: 42 µM
Primary EMM cells eRGO1; eRGO1, 48 h
  IC50: 25 µM
Primary EMM cells eRGO1; eRGO1, 96 h
  IC50: 15 µM
Primary ES cells sRGO2; sRGO2, 5 h
  IC50: > 100 µM
Primary ES cells sRGO2; sRGO2, 24 h
  IC50: 38 µM
Primary ES cells sRGO2; sRGO2, 48 h
  IC50: 29 µM
[4]; PriFi2, 5 h
  IC50: > 100 µM
[4]; PriFi2, 24 h
  IC50: 62 µM
[4]; PriFi2, 48 h
  IC50: 39 µM
[4]; PriFi2, 96 h
  IC50: 16 µM
[5]; 5 h
  IC50: > 100 µM
[5]; 24 h
  IC50: 50 µM
[5]; 48 h
  IC50: 36 µM
[5]; 96 h
  IC50: 16 µM

## C=C(C)[C@@H]1CC[C@]2(C(=O)OCC(N)(CO)CO)CC[C@]3(C)[C@H](CC[C@@H]4[C@@]5(C)CC[C@H](OC(C)=O)C(C)(C)[C@@H]5CC[C@]43C)[C@@H]12 [NVX-207, 3-acetyl-betulinic acid-2-amino-3-hydroxy-2-hydroxymethyl-propanoate]
[6]
  tolerability of intralesional treatment: well tolerated
  tumor response to intralesional treatment: clinically beneficial tumor response was observed
Horses affected by EMM
  safety of intralesional injection: proved to be safe; also recorded: well tolerated
[2]; PriFri2, 24 h
  Cell cycle percentage G1/G0: 43,1%
  Cell cycle percentage M: 1,3%
  Cell cycle percentage S: 10,8%
  Cell cycle percentage SubG1: 44,1%
[2]; PriFri2, 48 h
  Cell cycle percentage G1/G0: 14,8%
  Cell cycle percentage M: 0,1%
  Cell cycle percentage S: 2,9%
  Cell cycle percentage SubG1: 81,9%
ES cells sRGO2; sRGO2, 24 h
  Cell cycle percentage G1/G0: 76,6%
  Cell cycle percentage M: 6,4%
  Cell cycle percentage S: 15,8%
  Cell cycle percentage SubG1: 0,6%
ES cells sRGO2; sRGO2, 48 h
  Cell cycle percentage G1/G0: 64,5%
  Cell cycle percentage M: 3,9%
  Cell cycle percentage S: 13,7%
  Cell cycle percentage SubG1: 17,1%
EMM cells MelDuWi; 24 h
  Cell cycle percentage G1/G0: 77,4%
  Cell cycle percentage M: 0,8%
  Cell cycle percentage S: 14,4%
  Cell cycle percentage SubG1: 7,1%
EMM cells MelDuWi; 48 h
  Cell cycle percentage G1/G0: 26,8%
  Cell cycle percentage M: 0,3%
  Cell cycle percentage S: 12,9%
[3]; PriFi1, 5 h
  IC50: 11 µM
[3]; PriFi1, 24 h
  IC50: 4 µM
[3]; PriFi1, 48 h
  IC50: 2 µM
[3]; PriFi1, 96 h
  IC50: < 1 µM
[3]; PriFi1, after 48 h, CVS
  NVX-207 exceeded BBSs' antiproliferative effects: about 23 times
Primary ES cells sRGO1; sRGO1, 5 h
  IC50: 7 µM
Primary ES cells sRGO1; sRGO1, 24 h
  IC50: 7 µM
Primary ES cells sRGO1; sRGO1, 48 h
  IC50: < 1 µM
Primary ES cells sRGO1; sRGO1, after 48 h, CVS
  NVX-207 exceeded BBSs' antiproliferative effects: about 23 times
Primary EMM cells eRGO1; eRGO1, 5 h
  IC50: 10 µM
Primary EMM cells eRGO1; eRGO1, 24 h
  IC50: 5 µM
Primary EMM cells eRGO1; eRGO1, 48 h
  IC50: < 1 µM
Primary EMM cells eRGO1; eRGO1, 96 h
  IC50: < 1 µM
Primary EMM cells eRGO1; eRGO1, after 48 h, CVS
  NVX-207 exceeded BBSs' antiproliferative effects: about 25 times
Primary ES cells sRGO2; sRGO2, 5 h
  IC50: 6 µM
Primary ES cells sRGO2; sRGO2, 24 h
  IC50: < 1 µM
Primary ES cells sRGO2; sRGO2, 48 h
  IC50: < 1 µM
Primary ES cells sRGO2; sRGO2, after 48 h, CVS
  NVX-207 exceeded BBSs' antiproliferative effects: ~29 times
[4]; PriFi2, 5 h
  IC50: 14 µM
[4]; PriFi2, 24 h
  IC50: 8 µM
[4]; PriFi2, 48 h
  IC50: 7 µM
[4]; PriFi2, 96 h
  IC50: < 1 µM
[4]; PriFi2, after 48 h, CVS
  NVX-207 exceeded BBSs' antiproliferative effects: ~6 times
[5]; 5 h
  IC50: 20 µM
[5]; 24 h
  IC50: 16 µM
[5]; 48 h
  IC50: 12 µM
[5]; 96 h
  IC50: 4 µM
[5]; after 48 h, CVS
  NVX-207 exceeded BBSs' antiproliferative effects: ~3 times
